Reference: publication PMC6300691, “Enhancement of Heat Stability and Kinetic Parameters of the Maize Endosperm ADP-Glucose Pyrophosphorylase by Mutagenesis of Amino Acids in the Small Subunit With High B Factors” (Frontiers in Plant Science, 2018)
Residue numbers refer to the chain shown, from its start.

Tests used:
Assay type in all cases: biochemical
[1] = biological target: T1, E123G, R331K, L404H (Zea mays, UniProt P55241+Q947C0, E123G/R331K/L404H); test: Activation constant from initial rates with varied 3-PGA (0-1 mM) at 2 mM ATP and 2 mM G-1-P, pH 7.4, 15 mM MgCl2, fitted to V = Vmin + Vmax*X/(Ka + X).
T1 construct: BT2 variant with wild type SH2, E. coli, purified
Source text: (§1) All reactions were developed as above.

[2] = biological target: T2, E123V (Zea mays, UniProt P55241+Q947C0, E123V); test: as above
T2 construct: BT2 variant with wild type SH2, E. coli, purified
Source text: as §1

[3] = biological target: T3, SH2-ISM (Zea mays, UniProt P55241+Q947C0, Q96G/D161G/A443R); test: as above
T3 construct: SH2-ISM with wild type BT2 (SH2-ISM/BT2-WT), E. coli, purified
T3 sequence (Q947C0 1-475): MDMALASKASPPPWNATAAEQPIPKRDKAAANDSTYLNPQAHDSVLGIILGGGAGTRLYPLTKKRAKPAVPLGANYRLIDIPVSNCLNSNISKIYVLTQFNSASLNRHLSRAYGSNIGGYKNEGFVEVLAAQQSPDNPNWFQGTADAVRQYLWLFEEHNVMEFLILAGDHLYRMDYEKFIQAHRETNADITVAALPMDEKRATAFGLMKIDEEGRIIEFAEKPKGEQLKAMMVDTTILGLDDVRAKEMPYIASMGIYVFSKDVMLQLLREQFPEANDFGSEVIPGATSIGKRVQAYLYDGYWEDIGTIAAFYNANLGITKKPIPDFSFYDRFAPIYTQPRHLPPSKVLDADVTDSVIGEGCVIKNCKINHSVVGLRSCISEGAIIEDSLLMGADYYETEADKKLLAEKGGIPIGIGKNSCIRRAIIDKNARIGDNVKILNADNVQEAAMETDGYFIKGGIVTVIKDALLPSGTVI
T3 sequence (P55241 46-516 Q96G/D161G/A443R): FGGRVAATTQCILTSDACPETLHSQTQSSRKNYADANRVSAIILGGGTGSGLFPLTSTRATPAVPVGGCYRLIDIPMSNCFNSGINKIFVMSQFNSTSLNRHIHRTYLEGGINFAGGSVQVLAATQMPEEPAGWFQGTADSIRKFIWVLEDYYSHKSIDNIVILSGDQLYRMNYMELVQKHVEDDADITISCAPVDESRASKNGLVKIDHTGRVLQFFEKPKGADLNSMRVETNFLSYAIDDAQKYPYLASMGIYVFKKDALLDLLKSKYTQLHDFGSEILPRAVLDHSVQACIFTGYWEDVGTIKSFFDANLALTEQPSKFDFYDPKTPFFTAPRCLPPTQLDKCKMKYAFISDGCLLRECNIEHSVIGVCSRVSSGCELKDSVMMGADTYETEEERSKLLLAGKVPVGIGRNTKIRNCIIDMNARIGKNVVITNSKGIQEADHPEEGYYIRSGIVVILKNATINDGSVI
Source text: as §1

[4] = biological target: T4, E123G, R331K, K402R, L404H (Zea mays, UniProt P55241+Q947C0, E123G/R331K/K402R/L404H); test: as above
T4 construct: BT2 quadruple variant with wild type SH2, E. coli, purified
Source text: as §1

[5] = biological target: T5, SH2-E (Zea mays, UniProt P55241+Q947C0, N131R/T142F/A160T/Q261S/A396S/V416I/C424V/S444A); test: as above
T5 construct: SH2-E with wild type BT2 (SH2-E/BT2-WT), E. coli, purified
T5 sequence (Q947C0 1-475): T3 sequence (Q947C0 1-475)
T5 sequence (P55241 46-516 N131R/T142F/A160T/Q261S/A396S/V416I/C424V/S444A): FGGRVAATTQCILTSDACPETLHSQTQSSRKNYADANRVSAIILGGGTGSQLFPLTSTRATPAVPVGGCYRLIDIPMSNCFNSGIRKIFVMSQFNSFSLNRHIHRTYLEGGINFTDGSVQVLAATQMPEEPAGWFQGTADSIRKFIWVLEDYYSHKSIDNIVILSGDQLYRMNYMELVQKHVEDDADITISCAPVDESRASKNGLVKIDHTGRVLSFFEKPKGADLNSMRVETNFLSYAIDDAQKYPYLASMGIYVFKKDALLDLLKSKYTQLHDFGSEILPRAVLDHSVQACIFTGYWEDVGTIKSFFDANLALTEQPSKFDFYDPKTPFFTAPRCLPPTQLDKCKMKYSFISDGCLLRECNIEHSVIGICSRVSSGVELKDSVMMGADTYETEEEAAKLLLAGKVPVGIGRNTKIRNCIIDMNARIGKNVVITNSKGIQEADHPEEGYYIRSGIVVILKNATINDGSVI
Source text: as §1

[6] = biological target: T6, R331P (Zea mays, UniProt P55241+Q947C0, R331P); test: as above
T6 construct: BT2 variant with wild type SH2, E. coli, purified
Source text: as §1

[7] = biological target: T7, SH2-E/BT2-BF (Zea mays, UniProt P55241+Q947C0, E123G/N131R/T142F/A160T/Q261S/R331K/A396S/K402R/V416I/C424V/S444A); test: as above
T7 construct: SH2-E co-expressed with BT2-BF, E. coli, purified
T7 sequence (Q947C0 1-475 E123G/R331K/K402R): T3 sequence (Q947C0 1-475) with E123G, R331K, K402R
T7 sequence (P55241 46-516 N131R/T142F/A160T/Q261S/A396S/V416I/C424V/S444A): T5 sequence (P55241 46-516 N131R/T142F/A160T/Q261S/A396S/V416I/C424V/S444A)
Source text: as §1

[8] = biological target: T8, K403E (Zea mays, UniProt P55241+Q947C0, K403E); test: as above
T8 construct: BT2 variant with wild type SH2, E. coli, purified
Source text: as §1

[9] = biological target: T9, SH2-ISM/BT2-BF (Zea mays, UniProt P55241+Q947C0, Q96G/E123G/D161G/R331K/K402R/A443R); test: as above
T9 construct: SH2-ISM co-expressed with BT2-BF, E. coli, purified
T9 sequence (Q947C0 1-475 E123G/R331K/K402R): T3 sequence (Q947C0 1-475) with E123G, R331K, K402R
T9 sequence (P55241 46-516 Q96G/D161G/A443R): T3 sequence (P55241 46-516 Q96G/D161G/A443R)
Source text: as §1

[10] = biological target: T7, SH2-E/BT2-BF; test: Pi inhibition study without 3-PGA, ATP varied (0.1-3 mM) at fixed Pi levels (10-30 mM) and sub-saturating G-1-P (1 mM), fit to mixed-type inhibition equations.; conditions: read-out: Km (mM), varied substrate ATP, Pi inhibition in the absence of 3-PGA
Method: Pi inhibition was carried out in both the presence and absence of 3-PGA with the Pi and substrate concentrations listed below.
Pi inhibition patterns in the presence and absence of 3PGA were also determined. Pi inhibition patterns were obtained by varying one substrate at several fixed concentrations of Pi, while holding the co-substrate at constant sub-saturating levels.

T1 sequence (Q947C0 1-475 E123G/R331K/L404H): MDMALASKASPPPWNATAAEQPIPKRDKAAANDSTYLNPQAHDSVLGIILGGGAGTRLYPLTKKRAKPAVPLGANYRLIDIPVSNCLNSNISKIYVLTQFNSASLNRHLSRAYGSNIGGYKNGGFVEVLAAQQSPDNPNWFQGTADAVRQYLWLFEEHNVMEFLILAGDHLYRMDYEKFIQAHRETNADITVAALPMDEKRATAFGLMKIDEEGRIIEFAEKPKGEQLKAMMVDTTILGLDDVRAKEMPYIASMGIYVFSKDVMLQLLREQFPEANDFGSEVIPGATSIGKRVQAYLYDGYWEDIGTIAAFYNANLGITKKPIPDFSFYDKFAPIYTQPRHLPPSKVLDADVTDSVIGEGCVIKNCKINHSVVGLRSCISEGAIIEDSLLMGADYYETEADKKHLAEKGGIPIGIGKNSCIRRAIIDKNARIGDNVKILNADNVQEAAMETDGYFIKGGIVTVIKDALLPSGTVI
T1 sequence (P55241 46-516, stated change not applied): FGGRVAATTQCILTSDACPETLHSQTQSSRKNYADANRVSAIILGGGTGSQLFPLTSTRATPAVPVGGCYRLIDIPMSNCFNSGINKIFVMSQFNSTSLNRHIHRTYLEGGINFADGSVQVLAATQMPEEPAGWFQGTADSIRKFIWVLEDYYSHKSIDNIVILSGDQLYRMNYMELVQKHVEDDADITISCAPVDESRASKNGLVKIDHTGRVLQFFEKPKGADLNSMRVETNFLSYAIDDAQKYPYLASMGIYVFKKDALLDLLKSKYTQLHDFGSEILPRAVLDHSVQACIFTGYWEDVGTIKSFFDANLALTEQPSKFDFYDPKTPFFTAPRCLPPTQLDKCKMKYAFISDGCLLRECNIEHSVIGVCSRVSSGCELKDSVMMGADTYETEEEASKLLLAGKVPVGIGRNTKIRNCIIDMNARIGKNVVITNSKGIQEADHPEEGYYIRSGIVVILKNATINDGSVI
T2 sequence (Q947C0 entry or part of it E123V): as the sequence (Q947C0 1-475 E123G/R331K/L404H) above, with G123V, K331R, H404L counted along it
T2 sequence (P55241 46-516): as the sequence (P55241 46-516, stated change not applied) above
T4 sequence (Q947C0 1-475 E123G/R331K/K402R/L404H): as the sequence (Q947C0 1-475 E123G/R331K/L404H) above, with K402R counted along it
T4 sequence (P55241 46-516, stated change not applied): as the sequence (P55241 46-516, stated change not applied) above
T6 sequence (Q947C0 1-475 R331P): as the sequence (Q947C0 1-475 E123G/R331K/L404H) above, with G123E, K331P, H404L counted along it
T6 sequence (P55241 46-516): as the sequence (P55241 46-516, stated change not applied) above
T8 sequence (Q947C0 1-475 K403E): as the sequence (Q947C0 1-475 E123G/R331K/L404H) above, with G123E, K331R, K403E, H404L counted along it
T8 sequence (P55241 46-516): as the sequence (P55241 46-516, stated change not applied) above

For `O=C(O)[C@H](O)COP(=O)(O)O` [3-PGA, 3-phosphoglycerate (3-phosphoglyceric acid)], the “3-PGA Ka (activation constant)” value [1] was 0.059 ± 0.11, the “3-PGA Ka (activation constant)” value [2] was 0.10 ± 0.036 and the “3-PGA Ka (activation constant)” value [3] was 0.056 ± 0.008. For the same compound, the “3-PGA Ka (activation constant)” value [4] was 0.11 ± 0.017 +, the “3-PGA Ka (activation constant)” value [5] was 0.070 ± 0.01 and the “3-PGA Ka (activation constant)” value [6] was 0.094 ± 0.013. For the same compound, the “3-PGA Ka (activation constant)” value [7] was 0.36 ± 0.09, the “3-PGA Ka (activation constant)” value [8] was 0.14 ± 0.015 and the “3-PGA Ka (activation constant)” value [9] was 0.23 ± 0.11.

`Nc1ncnc2c1ncn2[C@@H]1O[C@H](COP(=O)(O)OP(=O)(O)OP(=O)(O)O)[C@@H](O)[C@H]1O` [ATP, adenosine 5'-triphosphate] gave a Km [10] of 4.98 ± 0.66 mM.
